Assay results taken from article PMC12750388, “Coumarin-1,2,3-Triazole Conjugates as Molecular Scaffolds for the Selective Induction of ROS-Driven Apoptosis in Cancer Cells in the Development of Pyruvate Kinase M2 Inhibitors” (ACS Omega, 2025).

Experiments:
SCC-25 = test: MTT cell viability assay, SCC-25; assay type: cell-based, human; conditions: for SI SCC-25: IC50 human gingival fibroblast / IC50 SCC-25; for IC50: MTT, 48 h
Procedure: (§1) The viability of SCC cell lines and primary human fibroblast cells was evaluated using the MTT assay to determine half maximal inhibitory concentration (IC50). Briefly, cells were grown in triplicate in 96-well plates (5 × 10^3 cells/well) until confluence. Then the medium was removed, fresh medium was added, and the cells were returned to the incubator in the presence of different compounds. DMSO at the same concentrations was used as a 100% cell viability control. After 48 h, cells were incubated with 5 mg/mL MTT reagent (3-(4,5-dimethyl-2-thiazolyl)-2,5-diphenyl-2-H-tetrazolium bromide) (Sigma-Aldrich Co., St. Louis, MO, USA) for 3.5 h. After that, formazan crystals were dissolved in MTT solvent solution (DMSO/methanol 1:1 v/v), and the absorbance at 560 nm was evaluated using an EPOCH microplate spectrophotometer (BioTek Instruments, Winooski, VT, USA) with the background absorbance at 670 nm subtracted. Each of the 12 compounds (7a–7l) was tested at six different concentrations, ranging from 6.25 to 200 μM in cancer and normal cell lines. Control (carboplatin) was tested at six different concentrations ranging from 25 μM to 800 μM in cancer cells and from 50 μM to 1600 μM in normal cells.
(§2) Half-maximal inhibitory concentration (IC50) values were obtained from the MTT assay of at least three independent replicates through nonlinear regression analysis using GraphPad Prism 5.0 software (Intuitive Software for Science, San Diego, CA, USA). Data were presented as means ± standard deviation (SD). A log dose–response curve (inhibitor vs response) using the least-squares method was used to determine the IC50 and SD from the data. The selectivity index (SI) was calculated as the ratio between the IC50 in normal cells and the IC50 in cancer cells, obtained by dividing the IC50 of normal cells by the IC50 of cancer cells.

SCC-4 = test: MTT cell viability assay, SCC-4; assay type: cell-based, human; conditions: for SI SCC-4: IC50 human gingival fibroblast / IC50 SCC-4; for IC50: MTT, 48 h
Procedure: as §1, §2

SCC-9 cell line = test: MTT cell viability assay, SCC-9; assay type: cell-based, human; conditions: for SI SCC-9: IC50 human gingival fibroblast / IC50 SCC-9; for IC50: MTT, 48 h
Procedure: as §1, §2

[1] = tested on: Primary Gingival Fibroblast; test: MTT cell viability assay, normal cells; assay type: cell-based, human; conditions: for IC50: MTT, 48 h, normal cells; for Average SI: average of SI for SCC-9, SCC-4 and SCC-25 versus gingival fibroblast
Procedure: as §1, §2

erythrocytes = test: Hemolysis assay; assay type: cell-based; conditions: human erythrocytes, 300 μM
Procedure: A hemolysis assay to evaluate surfactant effects of tested substances was performed using human blood approved by the Research Ethics Committee of Universidade Federal Fluminense (CAAE: 43134721.4.0000.5626). Erythrocytes are isolated upon three repeated centrifugation cycles at 1500 rpm for 15 min. Between each cycle of centrifugation, supernatant was removed, and a pH 7.5 PBS (phosphate-buffered saline) solution supplemented with 10 mM glucose was added to remove lysed erythrocytes. The number of cells was determined in an Automatic Cell Counter (Thermo Fisher, Waltham, MA, USA). Erythrocytes were then plated in 96-well plates at a concentration of 4 × 10^8 cells/well in triplicates, and 10 μL of compounds were added at a final concentration of 300 μM in PBS with glucose (final volume 100 μL). Ten μL of PBS was used as a negative control, and 10 μL of PBS with 0.1% Triton X-100 was used as a positive control. Data reading was performed with EPOCH (BioTek Instruments, Winooski, VT, USA) at an absorbance of 540 nm.

SCC-9 cells = test: MTT cell viability with N-acetyl-L-cysteine pretreatment; assay type: cell-based, human; conditions: SCC-9, 48 h; 7f 1 × IC50, menadione 20 μM
Procedure: The production of reactive oxygen species (ROS) was assessed by the detection of hydrogen peroxide (H2O2) using the ROS-Glo H2O2 assay kit (Promega Corporation, Madison, WI, USA; G8820). […] A plate with wells without cells was used as a control. Cells and cell-free wells remained in treatment at times of interest, and 2 h before completion of the times, well volumes were removed to reduce to 40 μL per well. Then the positive control of menadione (Sigma-Aldrich Co., St. Louis, MO, USA), a polycyclic aromatic ketone based on 1,4-naphthoquinone, was used to treat its respective well, and H2O2 substrate from the kit was added for all treatments, followed by the incubation of the plate for the remaining 2 h. Then the detection solution was added, and the plates remained at room temperature for 20 min, following the reading in the TD 20/20 luminometer (Turner Designs, Sunnyvale, CA, USA). The reading of bioluminescence detected is indicated as arbitrary units (a.u.). Additionally, the cell viability was assessed through pretreatment of cells with 10 mM N-acetyl-L-cysteine (NAC) (Sigma-Aldrich Co., St. Louis, MO, USA) for 2 h. […] At the end of the time, the MTT cell viability assay was performed.

Compound: N.N.O=C([O-])C1(C(=O)[O-])CCC1.[Pt+2] [Carboplatin, reference compound]
- SI SCC-25 (SCC-25): 1.40
- IC50 (SCC-25): 249 µM
- SI SCC-4 (SCC-4): 2.45
- IC50 (SCC-4): 142 µM
- SI SCC-9 (SCC-9 cell line): 2.31
- IC50 (SCC-9 cell line): 150 µM
- IC50 [1]: 348 µM
- Average SI [1]: 2.05
- hemolytic activity / membrane integrity (erythrocytes): neither carboplatin nor PBS affected the membrane integrity

Compound: O=C1C=C(NCc2cn(CCOc3cc(=O)oc4ccccc34)nn2)C(=O)c2ccccc21 [Compound 7a, 2-(((1-(2-((2-Oxo-2H-chromen-4-yl)oxy)ethyl)-1H-1,2,3-triazol-4-yl)methyl)amino) naphthalene-1,4-dione]
- IC50 (SCC-9 cell line; Homo sapiens, SCC-9): > 200 µM

Compound: O=C1C=C(OCc2cn(CCOc3cc(=O)oc4ccccc34)nn2)C(=O)c2ccccc21 [Compound 7b, 2-((1-(2-((2-Oxo-2H-chromen-4-yl)oxy)ethyl)-1H-1,2,3-triazol-4-yl)methoxy) naphthalene-1,4-dione]
- IC50 (SCC-9 cell line; Homo sapiens, SCC-9): > 200 µM

Compound: CC(C)=CC1=C(OCc2cn(CCOc3cc(=O)oc4ccccc34)nn2)C(=O)c2ccccc2C1=O [Compound 7c, 2-(2-Methylprop-1-en-1-yl)-3-((1-(2-((2-oxo-2H-chromen-4-yl)oxy)ethyl)-1H-1,2,3-triazol-4-yl)methoxy)naphthalene-1,4-dione]
- IC50 (SCC-25; Homo sapiens, SCC-25): 28.5 µM
- SI SCC-25 (SCC-25): 1.08
- IC50 (SCC-4; Homo sapiens, SCC-4): 17 µM
- SI SCC-4 (SCC-4): 1.82
- IC50 (SCC-9 cell line; Homo sapiens, SCC-9): 28.9 µM
- SI SCC-9 (SCC-9 cell line): 1.07
- IC50 ([1]; Homo sapiens, Fibroblast): 30.9 µM
- Average SI [1]: 1.32

Compound: CC(C)=CCC1=C(OCc2cn(CCOc3cc(=O)oc4ccccc34)nn2)C(=O)c2ccccc2C1=O [Compound 7d, 2-(3-Methylbut-2-en-1-yl)-3-((1-(2-((2-oxo-2H-chromen-4-yl)oxy)ethyl)-1H-1,2,3-triazol-4-yl)methoxy)naphthalene-1,4-dione]
- IC50 (SCC-9 cell line; Homo sapiens, SCC-9): > 150 µM

Compound: O=C1C=C(NCc2cn(CCCOc3cc(=O)oc4ccccc34)nn2)C(=O)c2ccccc21 [Compound 7e, 2-(((1-(3-((2-Oxo-2H-chromen-4-yl)oxy)propyl)-1H-1,2,3-triazol-4-yl)methyl)amino) naphthalene-1,4-dione]
- IC50 (SCC-9 cell line; Homo sapiens, SCC-9): > 150 µM

Compound: O=c1cc(OCCCn2cc(COc3cc(=O)oc4ccccc34)nn2)c2ccccc2o1 [Compound 7g, 4-(3-(4-(((2-Oxo-2H-chromen-4-yl)oxy)methyl)-1H-1,2,3-triazol-1-yl)propoxy)-2H-chromen-2-one]
- IC50 (SCC-9 cell line; Homo sapiens, SCC-9): > 150 µM

Compound: CC(=O)OCc1cn(CCCOc2cc(=O)oc3ccccc23)nn1 [Compound 7h, (1-(3-((2-Oxo-2H-chromen-4-yl)oxy)propyl)-1H-1,2,3-triazol-4-yl)methyl acetate]
- IC50 (SCC-9 cell line; Homo sapiens, SCC-9): > 200 µM

Compound: O=c1cc(OCCn2cc(-c3ccccc3)nn2)c2ccccc2o1 [Compound 7i, 4-(2-(4-Phenyl-1H-1,2,3-triazol-1-yl)ethoxy)-2H-chromen-2-one]
- IC50 (SCC-9 cell line; Homo sapiens, SCC-9): > 200 µM

Compound: CCCCCCc1cn(CCOc2cc(=O)oc3ccccc23)nn1 [Compound 7j, 4-(2-(4-Hexyl-1H-1,2,3-triazol-1-yl)ethoxy)-2H-chromen-2-one]
- IC50 (SCC-9 cell line; Homo sapiens, SCC-9): > 200 µM

Compound: CCCCCCc1cn(CCCOc2cc(=O)oc3ccccc23)nn1 [Compound 7l, 4-(3-(4-Hexyl-1H-1,2,3-triazol-1-yl)propoxy)-2H-chromen-2-one]
- IC50 (SCC-9 cell line; Homo sapiens, SCC-9): > 150 µM

Compound: CC1=CC(=O)c2ccccc2C1=O [menadione, reference compound]
- cell viability in the presence of 10 mM N-acetyl-L-cysteine (NAC) (SCC-9 cells): NAC protected cell death
